Test results taken from US9393313B2, “Drug entrapment efficiency and sustained drug release of chloramphenicol loaded polymeric-iron nanoparticles” (priority 2014, dated 2016).

Assays:
[1] = tested on: Gram positive sarccina; experiment: Anti-bacterial activity, agar well zone of inhibition; assay type: cell-based; conditions: 50 μL of 5 mg/mL suspension in 0.4 cm wells, 37° C. for 48 hours
Protocol: (§1) Nutrient broth was prepared by dissolving 0.2 g in 25 mL distilled water in erlenmeyer flask. The flask was then sterilized in an autoclave at the 121° C. for 15 minutes after applying cotton plug to cover its mouth. This growth media was utilized to prepare inoculums of all strains of bacteria. After adding a loop full of bacterial strain in it, the flask was placed in shaking incubator at 37° C. for the night. The plates were inoculated after the incubated broth was diluted up to 10^−2.
(§2) 0.8 g nutrient broth and 2 g of agar were added to 100 mL autoclaved water in an erlenmeyer flask. Apply cotton plug to the flask and then sterilize it in an autoclave at the 121° C. for 15 minutes. Each petri plate was poured with 15-20 mL of agar which was then solidified and inoculated with the bacterial strain. 50 μL of sample suspension was poured in wells that have the diameter of 0.4 cm. All sample suspensions were made by adding 5 mg of product in 1 mL distilled water. Zones of inhibition were observed after keeping these plates at 37° C. for 48 hours.

[2] = tested on: Gram positive Streptococci; experiment: as above; assay type: cell-based; conditions: 50 μL of 5 mg/mL suspension in 0.4 cm wells, 37° C. for 48 hours
Protocol: as §1, §2

[3] = tested on: Gram positive cocci (Separate); experiment: as above; assay type: cell-based; conditions: 48 h
Protocol: as §1, §2

[4] = In-vitro drug release / drug entrapment efficiency in PBS by UV spectroscopy at 278 nm; assay type: physicochemical
Protocol: 30 mg of CHL-loaded nanoparticles were dispersed and homogenized in 100 mL of PBS, pH 7.4 (purchased from Sigma Aldrich) which releases all entrapped CHL from the nanocomposite. Before homogenization, nanocomposite formulation was cleared from free drug molecules by washing with distilled water. Ultraviolet (UV) spectroscopy at a wavelength of 278 nm was employed for completely developing entire content of entrapped chloramphenicol in triplicates. A solution of drug-free nanocomposite (30 mg) in distilled water was employed as a reference, thus reducing the chances of interference by excipients and polymer used to prepare the nanocomposite. Following equation was utilized to evaluate drug entrapment efficiency (DEE) value, as was reported in a paper by Harilall S, Choonara Y E. et al. %DEE=D1/D2*100 Where D1 is the actual quantity of drug (mg/100 mL) and D2 is the theoretical quantity of drug (mg/100 mL) entrapped within the formulation. Precision of the results was made certain by calculating the average DEE of five samples.
An in-vitro drug release study was conducted on the basis of a paper reported by Harilall S, Choonara Y E. et al. for the zidovudine release study. CHL-loaded nanocomposite, nanocomposite and commercially available CHL were submerged in 100 mL PBS discretely and then sited these set of preparations in an orbital shaking incubator (20 rpms, 37° C.). Portions of these preparations were taken at altered time interims for 48 hours and substituted by equal quantities of buffer solution and were evaluated by UV spectroscopy for CHL absorption at a wavelength of 278 nm.

Structure (SMILES): O=C(N[C@H](CO)[C@H](O)c1ccc([N+](=O)[O-])cc1)C(Cl)Cl [CHL, chloramphenicol]
- zone of inhibition at 5000 µg/mL [1]: 2 mm
- zone of inhibition at 5000 µg/mL [2]: 6 mm
- zone of inhibition at 5000 µg/mL [3]: 4 mm
- Time in which almost the whole drug is released ([4]; PBS): 3 to 4 h
- DEE (FIG. 7, in-vitro drug release) ([4]; first hour of exposure to PBS, 37° C.): 91%
- DEE (FIG. 7, in-vitro drug release) ([4]; fourth hour in PBS (third of the next three hours)): 97%
- DEE (FIG. 7, in-vitro drug release) ([4]; second hour in PBS (first of the next three hours)): 94%
- DEE (FIG. 7, in-vitro drug release) ([4]; third hour in PBS (second of the next three hours)): 97%
